The values below come from patent US20060264623A1, “DNA-PK inhibitors” (KuDOS Pharmaceuticals Limited, priority 2005, published 2006).

In experiment [1] the target is T1, DNA-PK (Homo sapiens, UniProt P78527). Nature of the experiment: DNA-PK inhibition assay (ELISA, p53 serine 15 phosphorylation of GST-p53N66). It is filed as biochemical, Mammalian (HeLa cell nuclear extract). As for the experimental part:
In order to assess the inhibitory action of the compounds against DNA-PK in vitro, the following assay was used to determine IC50 values.
DNA-PK (250 ng) activity was measured at 30° C., in a final volume of 40 μl, in buffer containing 25 mM Hepes, pH7.4, 12.5 mM MgCl2, 50 mM KCl, 1 mM DTT, 10% Glycerol, 0.1% NP-40 and […] of the substrate GST-p53N66 (the amino terminal 66 amino acid resiudes of human wild type p53 fused to glutathione S-transferase) in polypropylene 96 well plates. To the assay mix, varying concentrations of inhibitor (in DMSO at a final concentration of 1%) were added. After 10 minutes of incubation, ATP was added to give a final concentration of 50 μM along with a 30mer double stranded DNA oligonucleotide (final concentraion of 0.5 ng/ml) to initiate the reaction. After 1 hour with shaking, 150 μl of phosphate buffered saline (PBS) was added to the reaction and 5 μl then transferred to a 96 well opaque white plate containing 45 μl of PBS per well where the GSTp53N66 substrate was allowed to bind to the wells for 1 hour. […] An anti-rabbit HRP conjugated secondary antibody (Pierce) was then employed in the ELISA before the addition of chemiluminescence reagent (NEN Renaissance) to detect the signal as measured by chemiluminescent counting via a TopCount NXT (Packard).
The enzyme activity for each compound is then calculated using the following equation: [formula] […]
A general note: In an ELISA, binding on a coated surface is turned into a signal by an enzyme label.

The next experiment deals with HeLa cells. Nature of the experiment: Survival Enhancement Ratio, clonogenic survival assay after 2 Gray irradiation. It is filed as cell-based. The note with it: inhibitor 500 nM. On the procedure:
The Survival Enhancement Ratio (SER) is a ratio of the enhancement of cell kill elicited by the DNA-PK inhibitor after 2 Grays of irradiation compared to unirradiated control cells. DNA-PK inhibitors were used at a fixed concentration of 500 nM. Radiation was delivered by a Faxitron 43855D machine at a dose rate of 1 Gy pre minute The SER at 2 Gray irradiation was calculated from the formula: [formula]
The degree of cell killing was monitored by a standard clonogenic survival assay. Briefly, tissue culture treated 6-well plates were seeded with HeLa cells at an appropriate concentration to give 100-200 colonies per well and returned to the incubator in order to allow the cells to attach. Four hours later, compound or vehicle control was added to the cells. The cells were then incubated for 1 hour in the presence of inhibitor prior to irradiation at 2 Gray using a Faxitron 43855D cabinet X-ray machine. The cells were then incubated for a further 16 hours before the media was replaced with fresh media in the absence of DNA-PK inhibitor. After 8 days, colonies formed were fixed and stained with Giemsa (Sigma, Poole, UK) and scored using an automated colony counter (Oxford Optronics Ltd, Oxford, UK). The data was calculated as described above.

Another experiment concerns the target PI 3-kinase. The note with it: stated to be the same as for DNA-PK; cited from earlier work.
In experiment [2] the target is T1, DNA-PK. The note with it: in vitro; read-out: IC50 towards DNA-PK; cited from earlier work.
The next experiment deals with cells. The note with it: cited from earlier work.

Where two headings read alike, the source gives them in different places.

For orientation: IC50 means the point on the concentration scale where inhibition reaches its midpoint. For the molecule `O=c1cc(N2CCOCC2)oc2c(-c3cccc(-c4ccccc4)c3)cccc12`, the IC50 at DNA-PK [1] amounted to 760 nM. For the same molecule, the “SER (Survival Enhancement Ratio)” value in the experiment on HeLa cells was found to be 1.5.
In the case of `O=c1cc(N2CCOCC2)oc2c(-c3ccccc3)cccc12` [LY294002], the IC50 on PI 3-kinase and at DNA-PK [2] was about 1000 nM in each case. For the same molecule, the “sensitisation of cells to the effects of IR” value in the experiment with cells is recorded as “weakly sensitise”.
